From patent US20240279687A1, “PEPTIDE NUCLEIC ACIDS FOR SPATIOTEMPORAL CONTROL OF CRISPR-CAS BINDING” (Yale University, priority 2021, published 2024)
{Lys} = L-lysine residue attached to the PNA terminus

Legend:
[1] = tested on: Cas9 RNP, ZSCAN2 sgRNA, ZSCAN2 off-target site; assay: ZSCAN2 off-target editing in K562 cells (amplicon sequencing); type: cell-based, human; conditions: PNA pre-treatment 2 hours before Cas9 RNP (FIG. 10A: 50 pmol PNA)
Protocol: (§1) For Cas9 RNP assembly, 50 pmol of sgRNA (IDT, Alt-R CRISPR-Cas9 sgRNA) and 45 pmol of SpCas9 (CPO2, PNA BIO) were incubated at room temperature for 10 minutes in a 5 μL reaction in 1×3.1 Buffer (B7203S, NEB). For nucleofections, 1×10^6 cells, 5 μL Cas9 RNP, and 1 μL of Alt-R Cas9 electroporation enhancer (IDT) were resuspended in 100 μL of Lonza cell line solution (V4XC-2024/V4XC-1024, Lonza) and nucleofected using a Lonza 4D-Nucleofector X unit. Cas9 RNP treated cells were seeded in 2 mL of complete media and incubated for 96 hours prior to harvesting for analysis.
(§2) For PNA pre-treatments, 1×10^6 cells and 1 μL of PNA diluted to desired concentration in water were similarly nucleofected using Lonza cell line kits and 4D-Nucleofector. PNA nucleofected cells were resuspended in 1.25 mL of complete media in 1.5 mL tubes and incubated at 37° C. for 2 hours before Cas9 RNP nucleofection as described above. […]
(§3) Genomic DNA was purified from 0.5×10^6 cells using Promega ReliaPrep gDNA Tissue Miniprep System (A2052) and eluted in 50 μL of water. […] FASTQ reads were subjected to quality analysis (Basespace FASTQC) and analyzed for indel frequency using Cas-Analyzer assessment tool (parameters: Comparison range (R)—both ends of full amplicon sequence, Minimum frequency (n)=1). gRNAs used in this study are listed in Table 8, amplicon genomic coordinates listed in Table 9.

[2] = tested on: Cas9 RNP (FANCF, EMX1, ZSCAN2, CCR5, VEGFA gRNAs); assay: On-target specificity of Cas9 RNP (ratio of on-target to off-target editing rates); type: cell-based, human
Protocol: (§4) For PNA pre-treatments, 1×10^6 cells and 1 μL of PNA diluted to desired concentration in water were similarly nucleofected using Lonza cell line kits and 4D-Nucleofector. PNA nucleofected cells were resuspended in 1.25 mL of complete media in 1.5 mL tubes and incubated at 37° C. for 2 hours before Cas9 RNP nucleofection as described above. After Cas9 RNP nucleofection cells were seeded in 2 mL of complete media and incubated for 96 hours prior to harvesting and analysis.
(§5) Genomic DNA was purified from 0.5×10^6 cells using Promega ReliaPrep gDNA Tissue Miniprep System (A2052) and eluted in 50 μL of water. Library prep used 100 ng of gDNA input with Ampliseq for Illumina Library Plus kit (20019101, Illumina) and used a custom primer pool designed to amplify a designed panel of genomic targets of interest (Table 9). Libraries were indexed, pooled, and loaded onto a Mid-output (300-cycles, Illumina, FC-420-1004) cartridge for paired-end sequencing on an Illumina Miniseq instrument. FASTQ reads were subjected to quality analysis (Basespace FASTQC) and analyzed for indel frequency using Cas-Analyzer assessment tool (parameters: Comparison range (R)—both ends of full amplicon sequence, Minimum frequency (n)=1). gRNAs used in this study are listed in Table 8, amplicon genomic coordinates listed in Table 9.
In the case of EMX1 ON and OFF target amplicons, both regions were amplified from 200 ng of purified gDNA by Phusion High-Fidelity Polymerase (NEB, M0530S) and pooled and purified using QIAGEN PCR purification kit (28104, Qiagen). Library prep used 200 ng of purified amplicon input with Illumina DNA Prep kit (20025519, Illumina). EMX1 libraries were similarly indexed, pooled, sequenced, and analysed as above.
For pre-annealed PAM-distal PNA experiments, 50 pmol of sgRNA and 50 pmol of PAM-distal 10mer PNAs were incubated in a thermocycler at 37° C. for 30 minutes in a 5 μL reaction in 1×3.1 Buffer (B7203S, NEB) to allow annealing. PNA annealing to sgRNAs was confirmed by gel shift on 5% polyacrylamide gel. 45 pmol of SpCas9 (CP02, PNA BIO) was then added at room temperature and incubated for 10 minutes to allow RNP formation. Resulting reaction was delivered to 1×10^6 K562 cells by a single nucleofection and treated as described above.

[3] = tested on: Cas9 RNP, ZSCAN2 sgRNA, ZSCAN2 ON site; assay: ZSCAN2 on-target editing in K562 cells (amplicon sequencing); type: cell-based, human; conditions: PNA pre-treatment 2 hours before Cas9 RNP (FIG. 10A: 50 pmol PNA)
Protocol: as §1, §2, §3

[4] = tested on: Cas9 RNP, FANCF sgRNA, FANCF OT1 site; assay: FANCF off-target editing in K562 cells (amplicon sequencing); type: cell-based, human
Protocol: as §1, §4
as §5, with “Libraries were indexed, pooled, and loaded onto a Mid-output (300-cycles, Illumina, FC-420-1004) cartridge for paired-end sequencing on an Illumina Miniseq instrument.” left out
(§6) 10^6 K562 cells were nucleofected (Lonza 4D Nucleofector) with specified dose (0-150 pmol) of FANCF PAM-distal 10mer PNA. […] Sequencing data was analyzed for indel frequency using a validated Cas-Analyzer tool (Park, et al., Bioinformatics 33, 286-288 (2017)).

[5] = tested on: Cas9 RNP, FANCF sgRNA, FANCF ON site; assay: FANCF on-target editing in K562 cells (amplicon sequencing); type: cell-based, human
Protocol: as §1, with “analysis. […]” for “analysis.”
as §3, §6

[6] = tested on: Cas9 RNP using a sgRNA targeted to the BFP gene; assay: Cas9 RNP editing of BFP reporter gene in K562-BFP cells (BFP fluorescent drop out, flow cytometry); type: cell-based, human
Protocol: as §1, §4
K562 cells were spun down and resuspended in fresh complete media at 300,000 cells/mL 48 hours prior to analysis. Samples for flow cytometry were fixed in complete media with 1% formaldehyde for 15 minutes before spinning down, resuspending in 300 μL PBS, and filtering through a cell strainer capped tube. Samples were analyzed for BFP and GFP fluorescence using a Cytoflex LX instrument (Beckman Coulter) using PacificBlue and FITC lasers, respectively, and quantification and gating was done using FloJo v10 software. Background fluorescent drop out was determined by measurement of mock nucleofected lines in quadruplicate and subtracted from experimental values to determine reported editing frequency.
10^6 stable BFP-expressing K562 cells were nucleofected (Lonza 4D Nucleofector) with a specified dose of PNA or ssDNA oligo (0-250 pmol). Two hours later, all conditions were nucleofected with 45 pmol of purified Cas9 RNP using a sgRNA targeted to the BFP gene. 72 hours later, cells with BFP fluorescent drop out (via Cas9 indel formation) were quantified by flow cytometry (Beckman Coulter—Cytoflex instrument).
In time-course experiments in FIG. 3D, K562 samples were nucleofected with 5 μL RNP reactions with the addition of 100 pmol of ssODN donor in 1 μL of water. RNP nucleofected samples were incubated at 37° C. in complete media before being spun down and nucleofected with 250 pmol of PNA at specified time points. After PNA delivery cells were seeded in 2 mL of complete media and incubated for 96 hours prior to harvesting and analysis.
10^6 stable BFP-expressing K562 cells were nucleofected (Lonza 4D Nucleofector) with specified dose (0-250 pmol, or 250 pmol if unspecified) of specified PNA with sequences homologous to (antispacer) or identical to (cis-spacer) the BFP gRNA spacer sequence. Two hours later, all conditions were nucleofected with 45 pmol of purified Cas9 RNP using a sgRNA targeted to the BFP gene. 72 hours later, cells with BFP fluorescent drop out (via Cas9 indel formation) were quantified by flow cytometry (Beckman Coulter—Cytoflex instrument).
10^6 stable BFP-expressing K562 cells were nucleofected (Lonza 4D Nucleofector) with 45 pmol of purified Cas9 RNP using a sgRNA targeted to the BFP gene. At each specified time point 250 pmol of BFP Anti-protospacer PNA were introduced via nucleofection. For “Cas9 only” condition there was no second PNA nucleofection and for “0 hrs” 250 pmol of PNA was co-nucleofected with Cas9 in a single reaction. After each nucleofection samples were left in fresh media for the duration of the experiment to acquire edits. 72 hours after the “24 hrs” nucleofection, cells for all conditions with BFP fluorescent drop out (via Cas9 indel formation) were quantified by flow cytometry (Beckman Coulter—Cytoflex instrument).

[7] = tested on: 20mer RNA oligonucleotide (spacer sequence designed to target the BFP gene); assay: UV spectroscopy thermal melting analysis of duplexes; type: binding; conditions: 1 μM each strand, 10 mM sodium phosphate buffer pH 7.4
Protocol: All samples were prepared by mixing a stoichiometric amount of each strand (1 μM) in 10 mM sodium phosphate buffer at pH 7.4 (Table 8). The samples were pre-annealed at 95° C. for 5 mins and gradually cooled to room temperature prior to the melting experiment. UV melting experiments were performed using a Shimadzu UV-3600 Plus UV-Vis-NIR spectrophotometer equipped with a thermoelectrically controlled multicell holder. UV melting spectra were recorded after every 1° C. temperature change by monitoring the absorbance at 260 nm from 20° C. to 110° C. to 20° C., with a heating/cooling ramp rate of 1.0° C./min. The heating and cooling curves were overlapped to confirm reversible denaturation. All spectra were plotted on Origin 2020 and smoothed using a 20-point adjacent averaging algorithm. The first derivative plots of the melting curves were generated to determine the melting temperature for each duplex.

[8] = tested on: BFP sgRNA and BFP Cas9 RNP; assay: sgRNA binding assay (EMSA) with TAMRA dye-labeled PNA, BFP target
Protocol: (§7) 10 pmol of BFP or HBB sgRNA were incubated with or without 10 pmol of purified Cas9 (Sigma) in 20 μL of 1×NEB buffer 3.1 for 15 minutes at room temp. Then, specified doses of a TAMRA dye labeled antispacer BFP ssPNA was added to each reaction and tubes were incubated in thermocycler for 30 minutes at 37C. 5 μL of resulting reactions were run on pre-cast 5% polyacrylamide TBE gels (BIORAD). The gel was washed in 1×TBE buffer and imaged for TAMRA signal using a Gel Doc XR+ gel imager system (BIORAD). Gel was then incubated in 1×SYBR Gold in TBE for 5 minutes, washed in 1×TBE, and imaged for nucleic acid staining on Gel Doc XR+ imager. Resulting images were superimposed using ImageJ.

[9] = tested on: HBB sgRNA and HBB Cas9 RNP; assay: sgRNA binding assay (EMSA) with TAMRA dye-labeled PNA, HBB target; conditions: heterologous spacer sequence (HBB target)
Protocol: as §7

[10] = tested on: Cas9 RNP, CCR5 R30 sgRNA, CCR2 off-target site; assay: CCR5 gRNA off-target editing in the CCR2 gene in K562 cells (amplicon sequencing); type: cell-based, human; conditions: PNA pre-treatment 2 hours before Cas9 RNP (FIG. 10A: 50 pmol PNA)
Protocol: as §1, §2, §3

[11] = tested on: Cas9 RNP, CCR5 R30 sgRNA, CCR5 ON site; assay: CCR5 on-target editing in K562 cells (amplicon sequencing); type: cell-based, human; conditions: PNA pre-treatment 2 hours before Cas9 RNP (FIG. 10A: 50 pmol PNA)
Protocol: as §1, §2, §3

CTTGCCGCAC (all peptide nucleic acid (PNA); further chemistry not fully specified) [ZSCAN PAMdist 10 mer PNA, 1 Lysine (K) on either end]
decrease of off-target editing [1]: 66.3% | overall increase in specificity ([2]; K562 cells, PNA pre-treatment): not observed | decrease of on-target editing [3]: 80.3%

K-CTTCTGCAGC-K (all peptide nucleic acid (PNA), 5' {Lys}, 3' {Lys}) [FANCF PAM-Distal 10 mer PNA]
difference in editing reduction, off-target versus on-target ([4]; 50 pmol): 11.6 fold | off-target editing ([4]; 50 pmol PNA (7.13% without PNA)): 3.07% | reduction of off-target editing ([4]; 50 pmol, 1:1 PNA:sgRNA ratio, compared to Cas9 RNP only): 57.1% | on-target editing ([5]; 50 pmol PNA (98.0% without PNA)): 93.2% | reduction of on-target editing ([5]; 50 pmol, 1:1 PNA:sgRNA ratio): 4.9% | specificity ratio versus Cas9 only ([2]; K562, HEK293, and U2OS cell lines, PNA pre-treatment prior to Cas9 RNP nucleofection): significantly increased specificity ratios | specificity versus pre-treatment approaches ([2]; PNA pre-annealed to sgRNA prior to Cas9 RNP formation, delivered as a single complex, K562): further improved specificity

KKK-ATGGCGTGCAGTGCTTCAGC-KKK (all peptide nucleic acid (PNA), 5' {Lys}-{Lys}-{Lys}, 3' {Lys}-{Lys}-{Lys}) [BFP Antispacer PNA]
inhibitory effect on Cas9-mediated BFP gene disruption and indel formation ([6]; 0-250 pmol nucleofected 2 hours prior to Cas9 RNP): robust dose-dependent inhibitory effect | block of indel formation (NHEJ) and template-mediated editing (HDR) when PNA is introduced after Cas9 RNP ([6]; 250 pmol PNA at time-points up to 24 hours after Cas9 RNP/ssODN nucleofection): rapidly and proportionally block both indel formation (NHEJ) and template-mediated editing (HDR) | Tm of duplex with RNA spacer sequence [7]: > 100 °C

TAMRA-KKK-ATGGCGTGCAGTGCTTCAGC-KKK (all peptide nucleic acid (PNA); N-terminal TAMRA dye, three lysines flank each end) [TAMRA BFP Antispacer PNA, TAMRA dye conjugated at N-terminus]
additional binding at 20 pmol (2×) doses compared to 10 pmol ([8]; 10 pmol sgRNA, 10 pmol Cas9): no significant additional binding | increase in PNA binding (TAMRA-Cas9 RNP gel bands) between 5 pmol (0.5×) and 10 pmol (1×) conditions ([8]; 10 pmol sgRNA, 10 pmol Cas9): 2.09 fold | PNA-TAMRA signal co-localization with sgRNA and RNP bands ([8]; sequence-matched (BFP target)): strongly co-localized | PNA-TAMRA signal co-localization with sgRNA and RNP bands [9]: not

TCCGCTCTAC (all peptide nucleic acid (PNA); further chemistry not fully specified) [CCR5 PAMdist 10 mer PNA, 1 Lysine (K) on either end]
off-target editing in the CCR2 gene [10]: undetectable | decrease of on-target editing [11]: 79.1%
